# Patent publication US7947719B2, “Biologically active compounds obtainable from Sorangium cellulosum” (Hemholtz-Zentrum fur Infektionsforschung GmbH, priority 2005, dated 2011)
# Legend:
# Assay type in all cases: cell-based
# Botrytis cinerea = assay: Minimal inhibitory concentration against micro-organisms
# Source text: (§1) As an example for compounds according to the invention, Disorazole Z has been analyzed for biological activity following the methods as disclosed in Irschik et al. (The Sorangicins, novel and powerful inhibitors of eubacterial RNA polymerase isolated from myxobacteria, J. Antibiotics 40: 7-13 (1987)). The following minimal inhibitory concentrations against organisms were found: […]
# [1] = tested on: Escherichia coli (DMSZ 5347); assay: as above
# Source text: as §1
# Mucor hiemalis = assay: as above
# Source text: as §1
# Pythium debaryanum = assay: as above; settings: Globisporangium debaryanum
# Source text: as §1
# Rhodotorula glutinis = assay: as above
# Source text: as §1
# Saccharomyces cerevisiae = assay: as above
# Source text: as §1
# Staphylococcus aureus = assay: as above
# Source text: as §1
# [2] = tested on: mouse fibroblast cell line L929 (ATCC CCL 1); assay: Toxicity against mouse fibroblast cell line L929; settings: L929 (ATCC CCL 1) mouse fibroblasts; read-out: inhibitory concentration IC50 (toxicity)
# Protocol: The toxicity tested against the mouse fibroblast cell line L929 (ATCC CCL 1) according to Sasse et al. (J. Antibiotics 56:827-831 (2003)), an inhibitory concentration IC50 of 30 pg/mL was determined.
smiles,measurement,setting,value
C/C=C/C(O)C(C)(C(=O)OC)C1C\C=C/C=C/C=C/c2nc(co2)C(=O)OC(C(C)(C(=O)OC)C(O)/C=C/C)C\C=C/C=C/C=C/c2nc(co2)C(=O)O1 (centres unmarked) [Disorazole Z],MIC,Botrytis cinerea,6 µg/mL
same,MIC,[1],> 25 µg/mL
same,MIC,Mucor hiemalis,> 6 µg/mL
same,MIC,Pythium debaryanum,3 µg/mL
same,MIC,Rhodotorula glutinis,3 µg/mL
same,MIC,Saccharomyces cerevisiae,> 6 µg/mL
same,MIC,Staphylococcus aureus,> 25 µg/mL
same,IC50,[2],0.03 ng/mL
